Data set [1] relates to Human immunodeficiency virus 1. Briefly: Antiviral activity against HIV-1 3B infected in human TZM-bl cells at 10 uM treated 2 to 6 hrs post infection for 2 hrs followed by compound washout measured after 2 days by luciferase reporter assay. Format: functional, organism-based. A general note: A reporter such as luciferase makes a cellular process visible.
For data set [2], the system named is Human immunodeficiency virus 1. Description: Antiviral activity against HIV-1 3B infected in human TZM-bl cells at 10 uM treated simultaneously with viral infection for 2 hrs followed by compound washout measured after 2 days by luciferase reporter assay. Format: functional, organism-based.
A short description of data set [3]: Spermicidal activity against mouse sperm assessed as motility of sperm at 100 uM after 1 hr by hemocytometric analysis. It counts as ADME.
The test system of data set [4] is TZM. Description: (§1) Cytotoxicity against human TZM-bl cells after 72 hrs by MTT assay. It counts as cell-based. The settings on record: tzm, 72 h. On the technique in general: Tetrazolium dyes change colour on reduction, which living cells bring about.
The test system of data set [5] is Human immunodeficiency virus 1. Briefly: Antiviral activity against HIV-1 3B infected in human TZM-bl cells treated for 2 hrs followed by compound washout measured after 2 days by luciferase reporter assay. It counts as functional, organism-based.
Data set [6] deals with Envelope glycoprotein gp160 (Human immunodeficiency virus 1, UniProt Q6QLK5). Briefly: Inhibition of HIV gp41 6-helix bundle formation preincubated with C34 and N36 for 30 mins.
Sequence of Envelope glycoprotein gp160 (Q6QLK5 whole entry): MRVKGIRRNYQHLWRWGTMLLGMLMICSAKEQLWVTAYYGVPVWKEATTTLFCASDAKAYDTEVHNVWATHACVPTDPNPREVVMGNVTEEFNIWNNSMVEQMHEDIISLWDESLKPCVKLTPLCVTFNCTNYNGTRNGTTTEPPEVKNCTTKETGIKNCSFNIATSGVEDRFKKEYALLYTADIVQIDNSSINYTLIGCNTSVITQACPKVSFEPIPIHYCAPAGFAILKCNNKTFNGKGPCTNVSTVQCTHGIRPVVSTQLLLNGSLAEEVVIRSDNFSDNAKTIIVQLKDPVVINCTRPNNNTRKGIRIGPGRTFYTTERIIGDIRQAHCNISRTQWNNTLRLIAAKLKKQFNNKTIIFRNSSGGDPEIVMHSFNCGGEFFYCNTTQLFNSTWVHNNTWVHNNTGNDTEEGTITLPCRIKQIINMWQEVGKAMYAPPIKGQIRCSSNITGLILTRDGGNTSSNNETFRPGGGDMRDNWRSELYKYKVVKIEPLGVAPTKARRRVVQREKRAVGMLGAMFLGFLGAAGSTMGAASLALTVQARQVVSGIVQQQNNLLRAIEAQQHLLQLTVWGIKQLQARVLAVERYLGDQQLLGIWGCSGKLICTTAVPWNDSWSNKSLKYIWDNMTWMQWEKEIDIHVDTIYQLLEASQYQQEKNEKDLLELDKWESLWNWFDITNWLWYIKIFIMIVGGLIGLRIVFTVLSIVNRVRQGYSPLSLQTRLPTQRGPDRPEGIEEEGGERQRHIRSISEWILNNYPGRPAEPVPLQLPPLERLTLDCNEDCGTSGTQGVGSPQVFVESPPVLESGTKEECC
Data set [7] is described as follows: Selectivity index, ratio of CC50 for human TZM-bl cells to IC50 for HIV-1 3B infected in human TZM-bl cells. Format: toxicity, cell-based.
Data set [8] concerns Human immunodeficiency virus 1. Briefly: Antiviral activity against X4R5 tropic HIV-1 93TH051 expressing Env subtype E infected in human PBMC assessed as reduction in p24 expression levels after 4 days by ELISA. Format: functional, organism-based. As to conditions: Human immunodeficiency virus 1, 93TH051, PBMC, 96 h. For orientation: An ELISA detects its analyte on a solid surface through an enzyme-linked reagent.

A short description of data set [9]: as §1. It counts as cell-based. The settings on record: TZM-bl cells.
Setting [10] is: Human immunodeficiency virus 1, 3B, TZM-bl.

The source of these data is ChEMBL document CHEMBL4177704, “Synthesis and biological evaluation of water-soluble derivatives of chiral gossypol as HIV fusion inhibitors targeting gp41” (Bioorg Med Chem Lett, 2018).

“And” between values parts separate entries of the source, which are not always exact repeats. Identical values can stand only once. The source made the active and inactive calls. No cut-off for these calls is given here.

`Cc1cc2c(c(O)c1-c1c(C)cc3c(c1O)/C(=C/NC(C)C(=O)NC(C)C(=O)O)C(=O)C(O)=C3C(C)C)/C(=C/NC(C)C(=O)NC(C)C(=O)O)C(=O)C(O)=C2C(C)C` (single isomer, unassigned; (-)): the outcome in [1] was inactive. For the same compound, in [2], the outcome was Active.

On to `Cc1cc2c(C(C)C)c(O)c(O)c(C=O)c2c(O)c1-c1c(C)cc2c(C(C)C)c(O)c(O)c(C=O)c2c1O` [GOSSYPOL], for which the Activity entry in data set [3] is listed as “Toxic”. Further, in data set [4], the CC50 (as a rule, the concentration that lowers cell viability or growth by half) is 18.1 µM and 5.22 µM.

For the compound `Cc1cn([C@H]2C[C@H](N=[N+]=[N-])[C@@H](CO)O2)c(=O)[nH]c1=O` [ZIDOVUDINE], in [5] (setting [10]), the IC50 (usually the concentration at which inhibition is half-maximal) came out at 0.0028 µM. Moreover, the result in data set [1] was inactive. For the same compound, in data set [2], the result was Active.

On to `Cc1cc2c(c(O)c1-c1c(C)cc3c(c1O)/C(=C/NC(C)C(=O)NC(C)C(=O)[O-])C(=O)C(O)=C3C(C)C)/C(=C/NC(C)C(=O)NC(C)C(=O)[O-])C(=O)C(O)=C2C(C)C.[Na+].[Na+]` (single isomer, unassigned; (-)), for which the IC50 was found to be 1.43 µM in [5], 7.87 µM in data set [6] and 1.72 µM in data set [8]. Besides, the Activity entry in [3] is recorded as “Non-Toxic”. This compound had a CC50 in data set [4] of 35.7 µM. In data set [7], the “Ratio CC50/IC50” value is 24.99.

On to `Cc1cc2c(c(O)c1-c1c(C)cc3c(c1O)/C(=C/N[C@@H](Cc1c[nH]c4ccccc14)C(=O)[O-])C(=O)C(O)=C3C(C)C)/C(=C/N[C@@H](Cc1c[nH]c3ccccc13)C(=O)[O-])C(=O)C(O)=C2C(C)C.[Na+].[Na+]` (stereo in doubt; (+)-12b), for which, in [5], the IC50 is 9.06 µM. The compound further came in with a CC50 at 72 h in data set [9] of 57 µM. The “Ratio CC50/IC50” value in [7] was 6.29.

With `Cc1cc2c(c(O)c1-c1c(C)cc3c(c1O)/C(=C/NC(C)S(=O)(=O)[O-])C(=O)C(O)=C3C(C)C)/C(=C/NC(C)S(=O)(=O)[O-])C(=O)C(O)=C2C(C)C.[Na+].[Na+]` (single isomer, unassigned; (-)), the IC50 is 1.17 µM in data set [5], 7.34 µM in [6] and 1.56 µM in data set [8]. In data set [3], the Activity entry is “Non-Toxic”. This compound came in with a CC50 in [4] of 37.8 µM. For the same compound, the selectivity ratio in [7] (TZM-bl cells, read-out: Ratio CC50/IC50) was determined as 32.3.

With `CC[C@H](C)[C@H](N/C=C1\C(=O)C(O)=C(C(C)C)c2cc(C)c(-c3c(C)cc4c(c3O)/C(=C/N[C@H](C(=O)[O-])[C@@H](C)CC)C(=O)C(O)=C4C(C)C)c(O)c21)C(=O)[O-].[Na+].[Na+]` (stereo in doubt; (+)-11b), in data set [5], half-maximal inhibition (IC50) required 4.22 µM. The compound also returned a CC50 at 72 h in data set [9] of 73.9 µM. In addition, the “Ratio CC50/IC50” value in data set [7] was determined as 17.5.

Compound enfuvirtide registered an IC50 in data set [5] (setting [10]) of 0.0905 µM. In [1], the result was inactive. Also, the result in data set [2] was Active.

`Cc1cc2c(c(O)c1-c1c(C)cc3c(c1O)/C(=C/NC(C)C(=O)NC(C)C(=O)[O-])C(=O)C(O)=C3C(C)C)/C(=C/NC(C)C(=O)NC(C)C(=O)[O-])C(=O)C(O)=C2C(C)C.[Na+].[Na+]` (stereo in doubt; (+)-3b) returned an IC50 in data set [5] of 5.82 µM. Further, the CC50 at 72 h in [9] turned out to be 59.5 µM. Moreover, the “Ratio CC50/IC50” value in data set [7] is recorded as 10.22.

Compound `Cc1cc2c(c(O)c1-c1c(C)cc3c(c1O)/C(=C/N[C@H](C(=O)[O-])C(C)C)C(=O)C(O)=C3C(C)C)/C(=C/N[C@H](C(=O)[O-])C(C)C)C(=O)C(O)=C2C(C)C.[Na+].[Na+]` (stereo in doubt; (+)-9b) displayed an IC50 in data set [5] of 5.92 µM. This compound had a CC50 at 72 h in data set [9] of 63.8 µM. Also, in data set [7], the “Ratio CC50/IC50” value was 10.78.

`Cc1cc2c(c(O)c1-c1c(C)cc3c(c1O)/C(=C/NCC(=O)NCC(=O)NCC(=O)[O-])C(=O)C(O)=C3C(C)C)/C(=C/NCC(=O)NCC(=O)NCC(=O)[O-])C(=O)C(O)=C2C(C)C.[Na+].[Na+]` (stereo in doubt; (+)-6b): in data set [5], the midpoint of inhibition, the IC50, lay at 6.62 µM. Further, the CC50 at 72 h in data set [9] was 62.4 µM. Moreover, in data set [7], the “Ratio CC50/IC50” value was 9.42.

As to `Cc1cc2c(c(O)c1-c1c(C)cc3c(c1O)/C(=C/NC(C)S(=O)(=O)O)C(=O)C(O)=C3C(C)C)/C(=C/NC(C)S(=O)(=O)O)C(=O)C(O)=C2C(C)C` (single isomer, unassigned; (-)), in [1], the outcome was inactive. The result in data set [2] was Active.

As for `Cc1cc2c(c(O)c1-c1c(C)cc3c(c1O)/C(=C/N[C@@H]1[C@@H](O)[C@H](O)[C@@H](CO)O[C@H]1O)C(=O)C(O)=C3C(C)C)/C(=C/N[C@@H]1[C@@H](O)[C@H](O)[C@@H](CO)O[C@H]1O)C(=O)C(O)=C2C(C)C` (stereo in doubt; (-)-1a) [listing 1 of 2 here], in data set [1], the result was inactive. For the same compound, in data set [2], the result was Active.

`Cc1cc2c(c(O)c1-c1c(C)cc3c(c1O)/C(=C/N[C@@H](CC(C)C)C(=O)[O-])C(=O)C(O)=C3C(C)C)/C(=C/N[C@@H](CC(C)C)C(=O)[O-])C(=O)C(O)=C2C(C)C.[Na+].[Na+]` (stereo in doubt; (+)-10b) registered an IC50 in data set [5] of 7.16 µM. For the same compound, in data set [9], the CC50 at 72 h was 60.1 µM. Also, the “Ratio CC50/IC50” value in data set [7] is 8.4.

In the case of `Cc1cc2c(c(O)c1-c1c(C)cc3c(c1O)/C(=C/N[C@@H]1[C@@H](O)[C@H](O)[C@@H](CO)O[C@H]1O)C(=O)C(O)=C3C(C)C)/C(=C/N[C@@H]1[C@@H](O)[C@H](O)[C@@H](CO)O[C@H]1O)C(=O)C(O)=C2C(C)C` (stereo in doubt; (-)-1a) [listing 2 of 2 here], the values for the IC50 in [5], in data set [6] and in data set [8] were 0.72 µM, 6.36 µM and 1.22 µM, respectively. In addition, in data set [3], the Activity entry is reported as “Non-Toxic”. In data set [4], this compound had a CC50 of 23.1 µM. The “Ratio CC50/IC50” value in data set [7] came to 32.12.
